Test results reported in ChEMBL document CHEMBL1201862, “PubChem BioAssay data set” (2004).
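Dose response: 5 concentrations. Exposure: 48 h. Format: 96-well plates. Endpoint: linear interpolation; highest concentration if not reached. GI50 marks 50% less growth.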 The source made the active and inactive calls. Rule as the data show it: active = GI50 up to about 1.1 µM and inactive = higher.

What was measured:
Assay in all cases: NCI-60 cell line screen, 48 h
SNB-78 = system: SNB-78
LXFL 529 = system: LXFL 529
DMS-273 = system: DMS-273
XF498 = system: XF498
KM-20L2 = system: KM-20L2
RXF 631 = system: RXF 631
DLD-1 = system: DLD-1
HOP-18 = system: HOP-18
DMS-114 = system: DMS-114

SMILES | GI50 (SNB-78) | GI50 (LXFL 529) | GI50 (DMS-273) | GI50 (XF498) | GI50 (KM-20L2) | GI50 (RXF 631) | GI50 (DLD-1) | GI50 (HOP-18) | GI50 (DMS-114)
CN(C)NC(=O)NC12CC3CC(CC(C3)C1)C2 | > 100 µM (inactive) | > 100 µM (inactive) | > 100 µM (inactive) | > 100 µM (inactive) | > 100 µM (inactive) |  |  |  | 
Cc1ccc(-n2c3nc(=O)n(C)c(=O)c-3nc3ccccc32)c(C)c1 | 21.5 µM (inactive) | 11.3 µM (inactive) | 4.34 µM (inactive) | 13.1 µM (inactive) | 4.92 µM (inactive) | 7.05 µM (inactive) | 15 µM (inactive) | 6.62 µM (inactive) | 
CC1(C2CCC3(C)OC3C2)CO1 (stereo unspecified) | > 100 µM (inactive) | > 100 µM (inactive) | > 100 µM (inactive) | > 100 µM (inactive) | > 100 µM (inactive) | > 100 µM (inactive) | > 100 µM (inactive) | > 100 µM (inactive) | > 100 µM (inactive)
COC1=NCc2ccccc2-c2ccccc21 | > 100 µM (inactive) | > 10 µM (inactive) | > 100 µM (inactive) | > 100 µM (inactive) |  |  | > 100 µM (inactive) | 75.9 µM (inactive) | > 100 µM (inactive)
O=C(/C=C/c1ccc([N+](=O)[O-])cc1)c1ccc(NCc2nc3ccccc3[nH]2)cc1 | 5.81 µM (inactive) | 2.9 µM (inactive) | 3.05 µM (inactive) | 6.17 µM (inactive) | 3.98 µM (inactive) | 3.49 µM (inactive) | 3.97 µM (inactive) | 16.4 µM (inactive) | 1.91 µM (inactive)
COc1ccc2c(c1)[n+]([O-])c(/C(C)=N/NC(=O)CC#N)c[n+]2[O-] | > 100 µM (inactive) | > 100 µM (inactive) | > 100 µM (inactive) | > 100 µM (inactive) | > 100 µM (inactive) | > 100 µM (inactive) | 74.6 µM (inactive) | > 100 µM (inactive) | > 100 µM (inactive)
CCOP(=S)(OCC)Oc1ccc2c(c1)OC(=O)C1(Cl)C2(C)C2(Cl)C(=O)Oc3cc(OP(=S)(OCC)OCC)ccc3C12C (stereo unspecified) | 19.4 µM (inactive) | 8.67 µM (inactive) | 20.3 µM (inactive) | 19.2 µM (inactive) | 17.1 µM (inactive) |  | 16.8 µM (inactive) |  | 14.6 µM (inactive)
COc1cccc2c1C(=O)c1c(O)c3c(c(O)c1C2=O)CC(O)(C(O)CO)CC3OC1CC(N2CCOCC2)C(O)C(C)O1 (stereo unspecified) | 0.0106 µM (active) | 0.0124 µM (active) | < 0.001 µM (active) | 0.0168 µM (active) | 0.0267 µM (active) | < 0.001 µM (active) | < 0.001 µM (active) | < 0.001 µM (active) | 0.018 µM (active)
COC(=O)c1nn(C(=N)c2ccc(Cl)cc2)c2c1CCCCC2 | > 100 µM (inactive) | > 100 µM (inactive) | > 100 µM (inactive) |  | > 100 µM (inactive) |  | > 100 µM (inactive) |  | > 100 µM (inactive)
O=C(n1c2ccccc2c2nnc(S)nc21)C(F)(F)F | > 100 µM (inactive) | > 100 µM (inactive) | > 100 µM (inactive) | > 100 µM (inactive) |  |  | > 100 µM (inactive) |  | > 100 µM (inactive)
Cc1cc2c(cn1)C(=O)OCC2 | > 100 µM (inactive) | > 100 µM (inactive) |  | > 100 µM (inactive) | > 100 µM (inactive) |  | > 100 µM (inactive) | > 100 µM (inactive) | > 100 µM (inactive)
CC(C)N(C(=O)C12C3C4C5(C(=O)O)C(C1C35I)C42C(=O)O)C(C)C (stereo unspecified) | > 100 µM (inactive) | > 100 µM (inactive) | > 100 µM (inactive) |  | > 100 µM (inactive) | > 100 µM (inactive) | > 100 µM (inactive) |  | > 100 µM (inactive)
COc1cccc(/C=N/[N-]C(=S)Nc2ccccc2)c1[O-].O.[Zn+2] | 40.1 µM (inactive) | 68.5 µM (inactive) |  | 23.2 µM (inactive) | 40.3 µM (inactive) |  | 29 µM (inactive) | > 100 µM (inactive) | 15.4 µM (inactive)
C=CCn1c(=O)n(CC=C)c(=O)n(CC=C)c1=O | > 100 µM (inactive) | > 100 µM (inactive) | > 100 µM (inactive) |  | > 100 µM (inactive) |  | > 100 µM (inactive) | > 100 µM (inactive) | > 100 µM (inactive)
O=C1/C(=C/c2ccccc2)CN(C(=O)CCN2CCCC2)C/C1=C\c1ccccc1 | 3.8 µM (inactive) | 1.72 µM (inactive) | 1.75 µM (inactive) | 5.09 µM (inactive) | 1.62 µM (inactive) | 4.08 µM (inactive) | 1.46 µM (inactive) | 3.35 µM (inactive) | 2.07 µM (inactive)
CN(C)C(=S)/N=c1\ss/c(=N\S(=O)(=O)c2ccccc2)n1N(C)C | > 100 µM (inactive) | > 100 µM (inactive) | 92 µM (inactive) |  | > 100 µM (inactive) | > 100 µM (inactive) | > 100 µM (inactive) | > 100 µM (inactive) | 12.9 µM (inactive)
COC(=O)[C@H]1C=C[C@@H](C)n2c(=O)c3cc4ccccc4cc3c(=O)n21 | > 100 µM (inactive) | > 100 µM (inactive) | > 100 µM (inactive) | 98.9 µM (inactive) | > 100 µM (inactive) | > 100 µM (inactive) | > 100 µM (inactive) |  | > 100 µM (inactive)
CCC(=S)N(C)O | 55.6 µM (inactive) | 0.499 µM (active) |  | 1.01 µM (active) | 21.7 µM (inactive) |  | 24.6 µM (inactive) |  | 2.22 µM (inactive)
COC(=O)C1=C(c2cc(OC)c(OC)c(OC)c2)OC(c2ccc(OC)c(OC)c2)C1 (stereo unspecified) |  | 26.5 µM (inactive) | 45.4 µM (inactive) | 68.4 µM (inactive) | 44.9 µM (inactive) |  | 36.5 µM (inactive) | 92.3 µM (inactive) | 28.4 µM (inactive)
